# Experimental data reported in patent EP2787958B1, “CHELIDONIUM MAJUS EXTRACTS AND THEIR USE IN THE TREATMENT OF SKIN DISORDERS AND PROMOTION OF SKIN REGENERATION” (priority 2011, dated 2013).
# Read-outs that look alike come from different tables or passages of the source.
# What was measured:
# [1] = test system: collagen produced by HDF cells; assay: Quantity of collagen produced by the cells (elution of Sirius Red); details: 1-10 µM (1 µM and 10 µM)
# HDF cells [2] = assay: Summary of uses and toxic effects deduced from the cell assays (Table 1); assay type: cell-based, Human
# Procedure: Antiradical (skin protective): this is deduced from the free radical scavenger effects.
# Revitalizing: this is deduced from the increased mitochondrial dehydrogenase effect.
# Cytoprotective, with regard to oxidative damage (antioxidant, anti-inflammatory and anti-ageing): this is deduced from antagonising the stimulation of IL-1β and/or IL-6 induced by 100 µM H2O2 and from the absence of changes in cell morphology similar to the ones due to cell senescence.
# Wound healing: this is deduced from the effect of inhibiting the production of IL-1β and by the effect of stimulating cell proliferation under standard growth conditions.
# Cytotoxicity: this is deduced from the effect of reducing mitochondrial dehydrogenase activity or from the presence of morphologies characteristic of cell senescence.
# Irritation: this is deduced from the effect of increased production of IL-6 and/or IL-1β under standard growth conditions.
# Said uses in the fields of medicine and cosmetics or the toxic effects of the substances of the invention at a given dosage, for 24 hours, are summarized in Table 1 below.
# interleukin 6 (IL-6) = assay: Inflammatory cytokines in cell supernatant (Mosaic ELISA microarray): IL-6; assay type: cell-based, Human; details: for IL-6 ng/(ml* No. of cells from photo) ± SD: 24 hours; for IL-6 production (effect in words): 1-10 µM
# Procedure: (§1) The inflammatory cytokines, CD40 ligand (CD40L), interferon γ (INF-γ), interleukin 1α (IL-1α), interleukin 1β (IL-1β), interleukin 6 (IL-6), interleukin 8 (IL-8), interleukin 17 (IL-17) and tumour necrosis factor α (TNF-α) were determined qualitatively and quantitatively. Each measurement was performed in duplicate using a Mosaic™ ELISA protein microarray assay system from R&D System in accordance with the supplier's instructions. Furthermore, with the aim of obtaining a correlation model between light signal intensity and cytokine concentration, a calibration curve using 6 concentrations was performed for each of them. Analysis of the data was performed using the dedicated Q-View™ Imager software package from Quansys Biosciences
# interleukin 1β (IL-1β) = assay: Inflammatory cytokines in cell supernatant (Mosaic ELISA microarray): IL-1β; assay type: cell-based, Human; details: for IL-1β ng/(ml* No. of cells from photo) ± SD: 24 hours; for IL-1β production (effect in words): 1-10 µM
# Procedure: as §1
# [3] = Anti-radical activity (decay of the DPPH radical); assay type: biochemical; details: for Anti-radical (skin protective): 24 hours
# Procedure: With regard to assays aimed at evaluating anti-radical activity, a chemical test was used where the decay of the diphenylpicrylhydrazyl (DPPH) radical is assessed in the absence or in the presence of the test substances. Indeed, the DPPH radical is used to test the ability of substances to act as free radical scavengers. DPPH in solution has a purple colour with a maximum absorbance peak at 517 nm which changes to yellow-colourless when this radical extracts a hydrogen atom from a radical scavenger to give rise to the reduced form DPPH-H. The assay has been conducted in quadruplicate in 96 well microplates (SARSTEDT Tissue Culture Plate 96-well flat bottom cell+). 50 µl of an ethanol solution of the test substance at 2X concentration and then 50 µl of a 200 µM solution of DPPH (MW 168,18, Aldrich 2,2-di(4-tert-octylphenyl)-1-picrylhydrazyl, free radical Lot# MKBF7574V Cat N° 257621-100 mg) have been added to each well of the microplate. A positive control consisting of 0.1 mM vitamin C and a negative control consisting of ethanol alone were included in each microplate. After 30 minutes from the addition of DPPH, photographs of the plates were taken (Canon PowerShot A610 5.0 Mpixels) and read spectrophotometrically at 530 nm.
# Based on the analysis of the results reported in Table 9, some substances were selected for further characterisation of their anti-radical activity. For the selected substances, dose-activity curves were obtained and the IC50 value were computed using a non-linear regression model with the Hill equation at variable slope. Such substances had been selected due to both their anti-radical potential and the easiness of their isolation/production. The selection of substances was made in view of cosmetics applications. Moreover their activity on human dermal fibroblasts (HDF) is expected to be useful also for the development of dermatological medications. The selected substances are discussed below.
# HDF cells [4] = assay: Evaluation of cell proliferation (counting of Sirius Red stained cells in photographs); details: for No. of cells from photo ± SD: 24 hours
# [5] = test system: Human dermal fibroblasts (HDF); assay: Mitochondrial dehydrogenase activity (WST-1 formazan assay) in HDF cells; details: for Revitalizing agent: 24 hours; for activity at 1 µM / activity at 10 µM: Homo sapiens, Fibroblast, read-out: % mitochondrial dehydrogenase activity ± SD
# Procedure: Human dermal fibroblasts were used for assay at the 3rd T75 passage.
# Mitochondrial dehydrogenase activity was measured in HDF, HEK and HUVEC cells by means of the formazan assay, using the WST-1 kit from Roche Diagnostic in accordance with the supplier's instructions. Briefly: the reagent was added (10 µl per well), the incubation was carried out for a further 2 hours or 4 hours, and, at the end of this time, the absorbance was read for 1 s at a wavelength of 450 nm in a Perkin Elmer Victor 2 Wallac microplate reader.
# The activity percentage (% mitochondrial dehydrogenase activity) is defined as: % mitochondrial dehydrogenase activity = ((absorbance of treated cells - absorbance of blank) / (absorbance of control - absorbance of blank)) x 100.
# The tests were performed with observations after 18 hours, seeding 8,000 cells per well, and after 42 hours, seeding 2,000 cells per well. Furthermore, in order to better analyze the dose/response curves for dihydroberberine, canadine and stylopine, curves were collected at 11 concentrations by seeding 2,000 cells per well with 46 hours incubation.
# Dose/response curves are plotted at 6 concentrations. The tests were performed with observations after 24 hours, seeding 8,000 cells per well.
# [6] = Dose 1 µm (coptisine: 1 pm [sic]), 24 hours
# [7] = Dose 1 µm (coptisine: 1 pm [sic])
structure (smiles),measurement,setting,value
c1cc2c(c3c1C[C@H]1c4cc5c(cc4CCN1C3)OCO5)OCO2 [stylopine],collagen production (effect in words),[1]; 34 ng/ml TGF-β1,antagonizes the stimulation of collagen induced by 34 ng/ml TGF-β1
same,collagen production (effect in words),[1]; 100 µM H2O2,tendency to inhibit collagen production
same,Cytotoxic,HDF cells [2],No
same,Irritant,HDF cells [2],No
same,"Anti-fibrotic (prevention of scar formation, also from acne)",HDF cells [2]; [6],"Yes (↓collagen, ↓IL-6, ↓IL-1β)"
same,"Cytoprotective (antioxidant, anti-inflammatory and anti-ageing; useful also in the treatment of acne)",HDF cells [2]; [6],"Yes (↓IL-6, ↓IL-1β)"
same,Wound-healing,HDF cells [2]; [6],Yes (↑profil)
same,"Anti-fibrotic (prevention of scar formation, also from acne)","HDF cells [2]; Dose 10 µm, 24 hours","Yes (↓collagen, ↓IL-6. ↓IL-1β)"
same,"Cytoprotective (antioxidant, anti-inflammatory and anti-ageing; useful also in the treatment of acne)","HDF cells [2]; Dose 10 µm, 24 hours","Yes (↓IL-6, ↓IL-1β)"
same,Cytotoxic,"HDF cells [2]; Dose 10 µm, 24 hours",No
same,Irritant,"HDF cells [2]; Dose 10 µm, 24 hours",No
same,Wound-healing,"HDF cells [2]; Dose 10 µm, 24 hours",No
same,concentrations at which no toxic (cytotoxic and irritant) effects are shown,HDF cells [2]; exposure for 24 hours,less than or equal to 10 µM
same,IL-6 ng/(ml* No. of cells from photo) ± SD,"interleukin 6 (IL-6); 1 µM, 34 ng/ml TGF-β1",447±8 ng/(ml* No. of cells from photo)
same,IL-6 ng/(ml* No. of cells from photo) ± SD,"interleukin 6 (IL-6); 1 µM, 100 µM H2O2",583±25 ng/(ml* No. of cells from photo)
same,IL-6 ng/(ml* No. of cells from photo) ± SD,"interleukin 6 (IL-6); 1 µM, Standard conditions",868±62 ng/(ml* No. of cells from photo)
same,IL-6 ng/(ml* No. of cells from photo) ± SD,"interleukin 6 (IL-6); 10 µM, 34 ng/ml TGF-β1",528±33 ng/(ml* No. of cells from photo)
same,IL-6 ng/(ml* No. of cells from photo) ± SD,"interleukin 6 (IL-6); 10 µM, 100 µM H2O2",449±2 ng/(ml* No. of cells from photo)
same,IL-6 ng/(ml* No. of cells from photo) ± SD,"interleukin 6 (IL-6); 10 µM, Standard conditions",961±38 ng/(ml* No. of cells from photo)
same,IL-6 production (effect in words),interleukin 6 (IL-6); 34 ng/ml TGF-β1,antagonizes the production of IL-6
same,IL-6 production (effect in words),interleukin 6 (IL-6); 100 µM H2O2,antagonizes the production of IL-6
same,IL-6 production (effect in words),interleukin 6 (IL-6); standard conditions,inhibits the production of IL-6
same,IL-1β ng/(ml* No. of cells from photo) ± SD,"interleukin 1β (IL-1β); 1 µM, 34 ng/ml TGF-β1",97±3 ng/(ml* No. of cells from photo)
same,IL-1β ng/(ml* No. of cells from photo) ± SD,"interleukin 1β (IL-1β); 1 µM, 100 µM H2O2",100±4 ng/(ml* No. of cells from photo)
same,IL-1β ng/(ml* No. of cells from photo) ± SD,"interleukin 1β (IL-1β); 1 µM, Standard conditions",159±10 ng/(ml* No. of cells from photo)
same,IL-1β ng/(ml* No. of cells from photo) ± SD,"interleukin 1β (IL-1β); 10 µM, 34 ng/ml TGF-β1",109±14 ng/(ml* No. of cells from photo)
same,IL-1β ng/(ml* No. of cells from photo) ± SD,"interleukin 1β (IL-1β); 10 µM, 100 µM H2O2",88±10 ng/(ml* No. of cells from photo)
same,IL-1β ng/(ml* No. of cells from photo) ± SD,"interleukin 1β (IL-1β); 10 µM, Standard conditions",186±7 ng/(ml* No. of cells from photo)
same,IL-1β production (effect in words),interleukin 1β (IL-1β); 34 ng/ml TGF-β1,antagonizes the production of IL-1β
same,IL-1β production (effect in words),interleukin 1β (IL-1β); 100 µM H2O2,antagonizes the production of IL-1β
same,IL-1β production (effect in words),interleukin 1β (IL-1β); standard conditions,inhibits the production of IL-1β
same,% DPPH activity,"[3]; 1 mM, 30 minutes",113%
same,Anti-radical (skin protective),[3]; [7],No
same,Anti-radical (skin protective),[3]; Dose 10 µm,No
same,cell proliferation (effect in words),HDF cells [4]; 1 µM,tendency to stimulate cell proliferation
same,No. of cells from photo ± SD,"HDF cells [4]; 1 µM, 34 ng/ml TGF-β1",237±19
same,No. of cells from photo ± SD,"HDF cells [4]; 1 µM, 100 µM H2O2",240±12
same,No. of cells from photo ± SD,"HDF cells [4]; 1 µM, Standard conditions",234± 7
same,No. of cells from photo ± SD,"HDF cells [4]; 10 µM, 34 ng/ml TGF-β1",210±17
same,No. of cells from photo ± SD,"HDF cells [4]; 10 µM, 100 µM H2O2",249±8
same,No. of cells from photo ± SD,"HDF cells [4]; 10 µM, Standard conditions",183±12
same,concentrations below which no significant effects on mitochondrial dehydrogenase activity are shown,[5],below 1 µM
same,mitochondrial dehydrogenase activity (effect in words),"[5]; 10 µM, exposure time 42 h",increased with respect to the control
same,mitochondrial dehydrogenase activity (effect in words),[5]; 100 µM,less marked stimulation of mitochondrial dehydrogenase activity
same,Revitalizing agent,[5]; [7],Yes**
same,Revitalizing agent,[5]; Dose 10 µm,Yes
same,activity at 1 µM,[5]; 18 h,105 ± 9.5%
same,activity at 10 µM,[5]; 18 h,107 ± 3%
same,activity at 1 µM,[5]; 42 h,100 ± 15.8%
same,activity at 10 µM,[5]; 42 h,151 ± 12.8%
same,activity at 1 µM,[5]; 46 h,95.7%
same,activity at 10 µM,[5]; 46 h,138 ± 23.9%
same,mitochondrial dehydrogenase activity (effect in words),"[5]; between 1 and 100 µM, exposure time 18 h",non-significant tendency to stimulate mitochondrial dehydrogenase activity in a dose-dependent manner
same,mitochondrial dehydrogenase activity (effect in words),"[5]; fibroblast cells, higher doses",inhibit mitochondrial dehydrogenase activity
same,mitochondrial dehydrogenase activity (effect in words),"[5]; fibroblast cells, low dosage",stimulate mitochondrial dehydrogenase activity
